Experimental data: patent publication US20230113037A1 (Bayer Aktiengesellschaft, priority 2019, published 2023)
Like-named read-outs stand apart in the source and are kept apart here.

Tests used:
AHR [1] = target: T1, AHR (Homo sapiens, UniProt P35869); experiment: In vitro assay 1: antagonism in human cell line (AHR transactivation, firefly luciferase reporter, kynurenic acid prestimulated); type: cell-based; conditions: AHR Antagonism Human IC50 [M], firefly luciferase reporter
T1 construct: U87 MG glioblastoma cells (ATCC #HTB-14) endogenously expressing AHR; endogenous in cells; host or cells: U87 MG glioblastoma cells (ATCC #HTB-14)
T1 sequence (P35869 11-848): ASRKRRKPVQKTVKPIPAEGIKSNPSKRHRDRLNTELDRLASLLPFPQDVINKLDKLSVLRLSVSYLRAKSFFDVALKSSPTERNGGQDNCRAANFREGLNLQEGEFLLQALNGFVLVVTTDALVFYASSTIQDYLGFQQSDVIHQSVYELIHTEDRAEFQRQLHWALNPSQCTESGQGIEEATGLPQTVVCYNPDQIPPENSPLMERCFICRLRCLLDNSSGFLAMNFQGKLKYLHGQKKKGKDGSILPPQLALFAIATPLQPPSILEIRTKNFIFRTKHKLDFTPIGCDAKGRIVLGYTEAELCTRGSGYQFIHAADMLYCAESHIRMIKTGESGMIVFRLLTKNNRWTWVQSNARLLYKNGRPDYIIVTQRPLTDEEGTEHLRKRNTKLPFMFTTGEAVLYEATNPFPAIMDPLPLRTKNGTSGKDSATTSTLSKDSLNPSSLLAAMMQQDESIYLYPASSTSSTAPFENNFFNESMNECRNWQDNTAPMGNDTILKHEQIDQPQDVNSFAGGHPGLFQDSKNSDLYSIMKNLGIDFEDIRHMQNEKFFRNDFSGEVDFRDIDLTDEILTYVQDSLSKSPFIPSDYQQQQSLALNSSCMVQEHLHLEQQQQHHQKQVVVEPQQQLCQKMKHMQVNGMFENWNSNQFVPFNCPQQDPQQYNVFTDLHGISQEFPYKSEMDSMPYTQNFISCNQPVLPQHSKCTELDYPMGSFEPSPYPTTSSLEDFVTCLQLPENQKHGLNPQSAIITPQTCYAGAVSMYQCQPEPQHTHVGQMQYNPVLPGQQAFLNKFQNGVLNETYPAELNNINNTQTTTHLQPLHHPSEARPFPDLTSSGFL
Method in brief: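 Antagonism measured as loss of kynurenic acid-driven firefly luciferase from DRE reporter in stably transfected U87 MG cells; constitutive Renilla signal monitors cytotoxicity. Positive/negative control normalization, staurosporine 5 μM with 150 μM kynurenic acid as inhibition control; replicates given as mean or median.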

AHR [2] = target: T2, AHR (Mus musculus, UniProt P30561); experiment: In vitro assay 3: antagonism in mouse cell line (AHR transactivation, firefly luciferase reporter, kynurenic acid prestimulated); type: cell-based
T2 sequence (P30561 1-848 P471L/N533S/M589L): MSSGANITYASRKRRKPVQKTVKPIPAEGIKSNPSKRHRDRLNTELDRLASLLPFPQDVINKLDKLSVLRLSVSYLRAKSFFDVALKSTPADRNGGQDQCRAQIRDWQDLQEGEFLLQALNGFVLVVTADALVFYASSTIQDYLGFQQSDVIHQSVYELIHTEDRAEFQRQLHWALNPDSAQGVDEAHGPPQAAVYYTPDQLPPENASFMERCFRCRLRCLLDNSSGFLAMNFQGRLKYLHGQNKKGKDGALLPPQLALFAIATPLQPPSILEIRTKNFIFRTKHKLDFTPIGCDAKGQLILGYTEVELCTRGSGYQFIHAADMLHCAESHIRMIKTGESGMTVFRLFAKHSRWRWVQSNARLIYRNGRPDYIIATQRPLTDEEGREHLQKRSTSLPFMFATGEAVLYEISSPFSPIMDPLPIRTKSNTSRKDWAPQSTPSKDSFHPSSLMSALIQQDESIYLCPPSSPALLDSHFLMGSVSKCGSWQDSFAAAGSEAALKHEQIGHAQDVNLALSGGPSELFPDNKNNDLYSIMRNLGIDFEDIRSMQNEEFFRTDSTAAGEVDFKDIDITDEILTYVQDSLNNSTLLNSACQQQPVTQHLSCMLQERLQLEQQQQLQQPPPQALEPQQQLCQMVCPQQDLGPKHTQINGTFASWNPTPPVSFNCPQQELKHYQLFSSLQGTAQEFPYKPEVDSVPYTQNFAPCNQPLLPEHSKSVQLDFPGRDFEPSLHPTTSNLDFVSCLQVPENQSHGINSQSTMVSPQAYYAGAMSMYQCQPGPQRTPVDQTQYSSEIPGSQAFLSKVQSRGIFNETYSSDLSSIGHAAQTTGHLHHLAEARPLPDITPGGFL
Method in brief: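 Kynurenic acid-prestimulated mouse reporter cells; stable AHR-inducible firefly luc construct with DRE sites in promoter. No-agonist wells = positive inhibition ctrl. Luminescence normalized to pos/neg ctrls; n>1 reported as mean or median.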

[3] = Hepa 1c1c7 cells, 200 μM kynurenic acid, 20 hours, firefly luciferase reporter, read-out: AHR Antagonism Mouse IC50

SMILES | IC50 (AHR [1]) | IC50 (AHR [2]; [3]) | IC50 (AHR [2]; read-out: AHR Antagonism Mouse IC50, Hepa 1c1c7 cells, 200 μM kynurenic acid, 20 hours, firefly luciferase reporter)
O=C1NCCCC[C@H]1Nc1nc2c(Br)cccc2c2nc(-c3cnn(C4CCC4)c3)nn12 [Example 824, (3R)-3-{[7-bromo-2-(1-cyclobutyl-1H-pyrazol-4-yl)[1,2,4]triazolo[1,5-c]quinazolin-5-yl]amino}azepan-2-one] | 9.98e-10 M | 0.845 nM | 
CCn1cc(-c2nc3c4cccc(Br)c4nc(N[C@@H]4CCCCNC4=O)n3n2)c(C)n1 [Example 825, (3R)-3-{[7-bromo-2-(1-ethyl-3-methyl-1H-pyrazol-4-yl)[1,2,4]triazolo[1,5-c]quinazolin-5-yl]amino}azepan-2-one] | 3.72e-10 M | 0.475 nM | 
O=C1NCCCC[C@H]1Nc1nc2c(Br)cccc2c2nc(-c3cnn(CC4CC4)c3)nn12 [Example 826, (3R)-3-({7-bromo-2-[1-(cyclopropylmethyl)-1H-pyrazol-4-yl][1,2,4]triazolo[1,5-c]quinazolin-5-yl}amino)azepan-2-one] | 1.77e-09 M | 2.26 nM | 
CN(C)c1cccc2c1nc(N[C@@H]1CCCCNC1=O)n1nc(-c3cnn(C)c3)nc21 [Example 828, (3R)-3-{[7-(dimethyalmino)-2-(1-methyl-1H-pyrazol-4-yl)[1,2,4]triazolo[1,5-c]quinazolin-5-yl]amino}azepan-2-one] | 1.78e-07 M | 13500 nM | 
O=C1NCCCC[C@H]1Nc1nc2c(Br)cccc2c2nc(-c3cnn(CC4CCC4)c3)nn12 [Example 832, (3R)-3-({7-bromo-2-[1-(cyclobutylmethyl)-1H-pyrazol-4-yl][1,2,4]triazolo[1,5-c]quinazolin-5-yl}amino)azepan-2-one] | 2.58e-09 M | 5.68 nM | 
Cn1cc(-c2nc3c4cccc(Br)c4nc(N[C@@H]4CSCCNC4=O)n3n2)cn1 [Example 837, (6S)-6-{[7-bromo-2-(1-methyl-1H-pyrazol-4-yl)[1,2,4]triazolo[1,5-c]quinazolin-5-yl]amino}-1,4-thiazepan-5-one] | 7.6e-10 M | 1.81 nM | 
Cn1cc(-c2nc3c4cccc(Br)c4nc(N[C@H]4CSCCNC4=O)n3n2)cn1 [Example 841, (6R)-6-{[7-bromo-2-(1-methyl-1H-pyrazol-4-yl)[1,2,4]triazolo[1,5-c]quinazolin-5-yl]amino}-1,4-thiazepan-5-one] | 1.82e-09 M | 3.01 nM | 
CC(C)S(=O)(=O)c1cccc2c1nc(N[C@@H]1CCCCNC1=O)n1nc(-c3cnn(C)c3)nc21 [Example 845, (3R)-3-{[2-(1-methyl-1H-pyrazol-4-yl)-7-(propane-2-sulfonyl)[1,2,4]triazolo[1,5-c]quinazolin-5-yl]amino}azepan-2-one] | 6.71e-08 M | 247 nM | 
CC(C)n1cc(-c2nc3c4cccc(S(C)(=O)=O)c4nc(N[C@@H]4CCCCNC4=O)n3n2)cn1 [Example 846, (3R)-3-({7-(methanesulfonyl)-2-[1-(propan-2-yl)-1H-pyrazol-4-yl][1,2,4]triazolo[1,5-c]quinazolin-5-yl}amino)azepan-2-one] | 1.29e-08 M | 232 nM | 
CCn1cc(-c2nc3c4cccc(S(C)(=O)=O)c4nc(N[C@@H]4CCCCNC4=O)n3n2)c(C)n1 [Example 847, (3R)-3-{[2-(1-ethyl-3-methyl-1H-pyrazol-4-yl)-7-(methanesulfonyl)[1,2,4]triazolo[1,5-c]quinazolin-5-yl]amino}azepan-2-one] | 3.02e-09 M | 60.1 nM | 
Cn1cc(-c2nc3c4cccc(Br)c4nc(N[C@H]4CS(=O)(=O)CCNC4=O)n3n2)cn1 [Example 848, (6R)-6-{[7-bromo-2-(1-methyl-1H-pyrazol-4-yl)[1,2,4]triazolo[1,5-c]quinazolin-5-yl]amino}-1λ^6,4-thiazepane-1,1,5-trione] | 1.69e-07 M | 197 nM | 
COc1ccc(-c2nc3c4cccc(Br)c4nc(N[C@@H]4CS(=O)(=O)CCNC4=O)n3n2)cc1 [Example 851, (6S)-6-{[7-bromo-2-(4-methoxyphenyl)[1,2,4]triazolo[1,5-c]quinazolin-5-yl]amino}-1λ^6,4-thiazepane-1,1,5-trione] | 9.17e-10 M |  | 1.76 nM

Further lines, with some results ahead:

IC50 (AHR [1]) | IC50 (AHR [2]; [3]) | SMILES | IC50 (AHR [2]; read-out: AHR Antagonism Mouse IC50, Hepa 1c1c7 cells, 200 μM kynurenic acid, 20 hours, firefly luciferase reporter)
8.88e-10 M | 1.54 nM | CCn1cc(-c2nc3c4cccc(Br)c4nc(N[C@@H]4CCCCNC4=O)n3n2)cn1 [Example 831, (3R)-3-{[7-bromo-2-(1-ethyl-1H-pyrazol-4-yl)[1,2,4]triazolo[1,5-c]quinazolin-5-yl]amino}azepan-2-one] | 
1.12e-09 M | 1.27 nM | O=C1NCCCC[C@H]1Nc1nc2c(C(F)(F)F)cccc2c2nc(-c3ccc(Cl)cc3)nn12 [Example 833, (3R)-3-{[2-(4-chlorophenyl)-7-(trifluoromethyl)[1,2,4]triazolo[1,5-c]quinazolin-5-yl]amino}azepan-2-one] | 
6.25e-09 M | 10.7 nM | CCn1cc(-c2nc3c4cccc(F)c4nc(N[C@@H]4CCCCNC4=O)n3n2)cn1 [Example 834, (3R)-3-{[2-(1-ethyl-1H-pyrazol-4-yl)-7-fluoro[1,2,4]triazolo[1,5-c]quinazolin-5-yl]amino}azepan-2-one] | 
1.54e-08 M | 18.5 nM | Cc1c(-c2nc3c4cccc(F)c4nc(N[C@@H]4CCCCNC4=O)n3n2)cnn1C [Example 835, (3R)-3-{[2-(1,5-dimethyl-1H-pyrazol-4-yl)-7-fluoro[1,2,4]triazolo[1,5-c]quinaozlin-5-yl]amino}azepan-2-one] | 
4.19e-09 M | 4.95 nM | CC(C)n1cc(-c2nc3c4cccc(F)c4nc(N[C@@H]4CCCCNC4=O)n3n2)cn1 [Example 836] | 
9.63e-10 M | 2.02 nM | CC(C)n1cc(-c2nc3c4cccc(C(F)(F)F)c4nc(N[C@@H]4CSCCNC4=O)n3n2)cn1 [Example 838, (6S)-6-({2-[1-(propan-2-yl)-1H-pyrazol-4-yl]-7-(trifluoromethyl)[1,2,4]triaozlo[1,5-c]quinazolin-5-yl}amino)-1,4-thiazepan-5-one] | 
4.03e-10 M | 9.92 nM | COc1ccc(-c2nc3c4cccc(S(C)(=O)=O)c4nc(N[C@@H]4CCCCNC4=O)n3n2)cc1 [Example 842, (3R)-3-{[7-(methanesulfonyl)-2-(4-methoxyphenyl)[1,2,4]triazolo[1,5-c]quinazolin-5-yl]amino}azepan-2-one] | 
4.46e-09 M | 11.1 nM | COc1ccc(-c2nc3c4cccc(S(=O)(=O)C(C)C)c4nc(N[C@@H]4CCCCNC4=O)n3n2)cc1 [Example 843, (3R)-3-{[2-(4-methoxyphenyl)-7-(propane-2-sulfonyl)[1,2,4]triazolo[1,5-c]quinazolin-5-yl]amino}azepan-2-one] | 
1.76e-09 M | 10.9 nM | CCS(=O)(=O)c1cccc2c1nc(N[C@@H]1CCCCNC1=O)n1nc(-c3ccc(OC)cc3)nc21 [Example 844, (3R)-3-{[7-(ethanesulfonyl)-2-(4-methoxyphenyl)[1,2,4]triazolo[1,5-c]quinazolin-5-yl]amino}azepan-2-one] | 
